The test system of experiment [1] is SH-SY5Y cells. Kind of experiment: Cell viability (MTS) of SH-SY5Y cells treated with erastin (ferroptosis), neurotoxicity model. Type of experiment: cell-based, Human. The following applies: 10 μM erastin 24 h. Here is the method: (§1) The SH-SY5Y neuronal cells (Human Neuroblastoma Cell line) and HT-22 cells (Mouse Hippocampal Neuronal Cell line) were maintained in standard DMEM with GlutaMAX medium (GIBCO), supplemented with 10% fetal bovine serum (GIBCO), at 37° C. in presence of 5% CO2.
(§2) SH-SY5Y, LLC-PK1, ARPE-19 and HT22 cells were seeded in 96-well plates at a density of 10 000 or 5000 cells per well respectively, following overnight incubation. Cells were treated with 10 μM (SH-SY5Y cells) or 0.5 μM (HT22 cells) of erastin or 2 μM of RSL3 (LLCPK1) or 10 mM of sodium iodate (ARPE-19 cells) for 24 h.
(§3) Erastin and RSL3 was purchased from Selleck Chemical and sodium iodate from Sigma Aldrich. Cell viability was assessed by MTS assay (CellTiter 96@D AQueous Non-Radioactive Cell Proliferation Assay; Promega, Fitchburg, WI, USA) according to the manufacturer's instructions. This assay is based on the reduction of the 3-(4,5-dimethylthiazol-2-yl)-5-(3-carboxymethoxyphenyl)-2-(4-sulfophenyl)-2H-tetrazolium (MTS) by viable cells to form a colored formazan product. After treatment, cells were incubated 3 h at 37° C., 5% CO2 with MTS. The absorbance was measured using a microplate reader at 490 and 630 nm and the percentage of viability was calculated by dividing the absorbance of testing compound by the absorbance of DMSO treated cells (control).
(§4) Cells (HT-22, SHSY-5Y, LLC-PK1 and ARPE 19) were seeded in a 96-well plate in their respective medium overnight. The next day they were treated with NAC or a derivative thereof including NACA or N-acetylcysteine ethyl ester (compound A), with inhibitor compound (compound B) or with a combination of the two compounds. The analysis of the effects of the combination of the association of compound A (NAC or a derivative thereof including NACA and N-acetylcysteine ethyl ester) with another compound B is based on the independence model of Bliss. In this approach, the effect of compound alone (EA or EB) or in combination is expressed as a probability (0≤E≤1). The combined effect of the compounds is defined by:
(§5) wherein EA and EB represent the effects of compound A and compound B respectively, and EAB the combined effect of the combination of A and B (expected effect on histogram). Calculation index CI is calculated as follows: CI=(EA+EB−EA*EB)/EAB wherein CI is synergistic, antagonistic or additive when CI is under, above or equal to 1 respectively [Duarte et al., Current Research in Pharmacology and Drug Discovery, 2022].
Cell death by ferroptosis was induced by erastin [Dixon et al., Cell, 2012, 149(5), 1060-1072] in both cell lines. Erastin is a well described ferroptosis inducer and also a molecular tool to study neuronal pathologies [Lewerenz et al., Front. Neurosci., 2018, 12: 214].

Experiment [2] relates to HT-22 cells. The experiment can be described thus: Cell viability (MTS) of HT22 cells treated with erastin (ferroptosis), neurotoxicity model. The format is cell-based, Mouse. As to conditions: 0.5 μM erastin 24 h. Here is the method: as §1, §2, §3
Cells (HT-22, SHSY-5Y, LLC-PK1 and ARPE 19) were seeded in a 96-well plate in their respective medium overnight. […] In this approach, the effect of compound alone (EA or EB) or in combination is expressed as a probability (0≤E≤1). […]
wherein EA and EB represent the effects of compound A and compound B respectively, and EAB the combined effect of the combination of A and B (expected effect on histogram). Calculation index CI is calculated as follows: CI=(EA+EB−EA*EB)/EAB wherein CI is synergistic, antagonistic or additive when CI is under, above or equal to 1 respectively [Duarte et al., Current Research in Pharmacology and Drug Discovery, 2022]. […]

The test system of experiment [3] is LLC-PK1 cells. Kind of experiment: Cell viability (MTS) of LLC-PK1 cells treated with RSL3. Type of experiment: cell-based, Pig. The following applies: 2 μM RSL3 24 h. Here is the method:
The LLC-PK1 cells (Pig Kidney Epithelial cells) were cultured in DMEM/F12(GIBCO), supplemented with 10% fetal bovine serum (GIBCO), at 37° C. in presence of 5% CO2.
as §2, §3
Cells (HT-22, SHSY-5Y, LLC-PK1 and ARPE 19) were seeded in a 96-well plate in their respective medium overnight. The next day they were treated with NAC or a derivative thereof including NACA or N-acetylcysteine ethyl ester (compound A), with inhibitor compound (compound B) or with a combination of the two compounds. […] In this approach, the effect of compound alone (EA or EB) or in combination is expressed as a probability (0≤E≤1). […]
as §5

For experiment [4], the system named is mice model of APAP intoxication. Kind of experiment: In vivo mice model of APAP intoxication, plasma ALT. Set-up: species or system C57Bl/6J male mice. The following applies: for ALT plasma level: 8 h after APAP, APAP only ~3000, control ~100 IU/L. How it is done: Nine-week-old C57Bl/6J male mice were purchased from Janvier Labs (Le Genest St Isle, France). After one week of acclimatization in the animal house, mice were fasted overnight before experimentation. Acetaminophen (APAP) was purchased from Sigma-Aldrich (A70-85-100 g, batch #SCLF8273) and diluted at 20 mg/mL in PBS (preheated at 45° C.). Acetaminophen intoxication was induced in mice by intraperitoneal (i.p.) injection of APAP (400 mg/kg). One hour after APAP injection, mice were treated with inhibitors by intraperitoneal injection. N-acetylcysteine (NAC, A9165-25 g, Sigma-Aldrich, batch #SLCJ1628), the reference treatment for paracetamol intoxication, was diluted at 40 mg/mL in PBS Tween80 5% and injected via intraperitoneal route at a dose of 200 mg/kg. Compound 7 was diluted at 1 mg/ml or 2 mg/ml in PBS Tween80 5% and injected by intraperitoneal injection with increasing concentrations (2.5, 5 or 10 mg/kg) or in combination with NAC (200 mg/kg). There were two groups of control mice: the first one was injected via i.p. route with PBS Tween80 5% (Tween80 5%) and the second group, treated with APAP, was administered one hour after APAP with PBS Tween80 5% (APAP-Tween80 5%) via i.p.. Mice were slaughtered eight hours after APAP injection. Blood and liver were collected.
Serum alanine aminotransferase (ALT) plasma levels were measured according to the International Federation of Clinical Chemistry and Laboratory Medicine primary reference procedures using an Olympus AU2700 Autoanalyser (Olympus Optical).
Results were expressed as means SEM. Mean differences between two experimental groups were assessed using the non-parametric Mann-Whitney U-test. […] Calculated P values are integrated on histograms and graphs. Significance is shown as follows: $ P<0.05, $$ P<0.01, $$$ P<0.001 and $$$ P<0.0001 (comparison between APAP mice and APAP mice treated with NAC and/or compound 7); * P<0.05, ** P<0.01, *** P<0.001 and **** P<0.0001 (comparison between treated groups).
Nine Groups of Mice were Studied: • Tween80 5%, n=15 • APAP (400 mg/kg)+Tween 80 5%, n=31 • APAP (400 mg/kg)+NAC (200 mg/kg), n=15 • APAP (400 mg/kg)+compound 7 (2.5 mg/kg), n=23 • APAP (400 mg/kg)+compound 7 (5 mg/kg), n=21 • APAP (400 mg/kg)+compound 7 (10 mg/kg), n=21 • APAP (400 mg/kg)+compound 7 (2.5 mg/kg)+(NAC 200 mg/kg), n=9 • APAP (400 mg/kg)+compound 7 (5 mg/kg)+NAC (200 mg/kg), n=9 • APAP (400 mg/kg)+compound 7 (10 mg/kg)+NAC (200 mg/kg), n=13

The subject of experiment [5] is ARPE-19 cells. Kind of experiment: Cell viability (MTS) of ARPE-19 cells treated with sodium iodate, model of eye disease. The format is cell-based, Human. The following applies: 10 mM sodium iodate 24 h. How it is done:
The ARPE-19 cells (Human Retinal pigment epithelial cell line) were cultured in standard DMEM/F12 medium (GIBCO), supplemented with 10% fetal bovine serum (GIBCO), at 37° C. in presence of 5% CO2.
as §2, §3, §4, §5
Age-related macular degeneration, or AMD, is characterized by vision loss caused by degeneration of the central cells of the retina, called the macula. […] One model used to study retinal cell death is that of human ARPE-19 cells, a retinal pigment epithelial cell line, in the presence of sodium iodate (NaIO3, a potent oxidizing agent) [Hanus et al. Cell Death Discov. 2016, 2, 16054][Chan et al., J. Biomed. Sci., 2019, 26:40].

Setting [6] is: NAC 200 mg/kg with compound 7 10 mg/kg i.p. one hour after APAP 400 mg/kg.

The values that follow come from patent US20260263402A1, “SYNERGISTIC COMBINATIONS OF REGULATED NECROSIS INHIBITORS WITH N-ACETYLCYSTEINE” (priority 2022, published 2026).

`Oc1ccc(-c2cc3ccccc3[nH]2)cc1` [Compound 1]: the “effect on viability, combined with NAC (Bliss model)” value (“effect … with NAC (Bliss model)” below) in experiment [1] (FIG. 4, 1 μM cmpd 1 + 100 μM NAC) is reported as “synergistic effect”; in experiment [2] (FIG. 7, 5 μM cmpd 1 + 100 μM NAC), “synergistic effect”; in experiment [3] (FIG. 11, 1 μM Compound 1 + 500 μM NAC), “synergistic effect”. Besides, the “effect on viability, compound alone” value in experiment [1] (FIG. 4, 1 μM cmpd 1 alone) was “significant effect”; in experiment [1] (FIG. 15, 2.5 μM Compound 1 alone), “significant effect”. Further, the “effect on viability, combined with N-acetylcysteine ethyl ester (Bliss model)” value in experiment [1] (FIG. 15, 2.5 μM Compound 1 + 100 μM N-acetylcysteine ethyl ester) is “synergistic effect”.

`Oc1ccc(-c2cc3cccnc3[nH]2)cc1` [Compound 7, sibiriline]: the “effect on viability, combined with N-acetylcysteine ethyl ester (Bliss model)” value in experiment [1] (FIG. 14, 10 μM Compound 7 + 100 μM N-acetylcysteine ethyl ester) is “synergistic effect”. Moreover, the “effect on viability, compound alone” value in experiment [1] (FIG. 14, 10 μM Compound 7 alone) was “significant effect”. Further, the “effect … with NAC (Bliss model)” value in experiment [2] (FIG. 5, 25 μM cmpd 7 + 100 μM NAC) was “synergistic effect”; in experiment [3] (FIG. 10, 2.5 μM Compound 7 + 500 μM NAC), “synergistic effect”. Also, the “protective effect against APAP toxicity, combination versus NAC alone or compound 7 alone” value in experiment [4] (NAC 200 mg/kg in combination with compound 7 2.5, 5 or 10 mg/kg i.p., FIG. 9a-c) is “better and synergistic protective effect”. In addition, the “protection against APAP toxicity” value in experiment [4] (setting [6]) is “almost complete protection”. The ALT plasma level in experiment [4] (setting [6]) is on record as ~ 200 IU/L; in experiment [4] (compound 7 10 mg/kg i.p. one hour after APAP 400 mg/kg i.p.) it was ~ 1000 IU/L. The “effect on ALT plasma levels, compound alone” value in experiment [4] (compound 7 2.5, 5 or 10 mg/kg i.p. one hour after APAP 400 mg/kg, maximum effect at 10 mg/kg) is given as “reducing ALT plasma levels in a dose-dependent manner”.

`Oc1ccc(-c2cc3ccc(Cl)nc3[nH]2)cc1` [Compound 37]: in experiment [2] (FIG. 6, 50 μM cmpd 37 + 100 μM NAC), the “effect … with NAC (Bliss model)” value was “synergistic effect”.

Regarding `NCCOCCOc1ccc(-c2cc3cccnc3[nH]2)cc1` [Compound 45], the “effect … with NAC (Bliss model)” value in experiment [5] (FIG. 1, 10 μM cmpd 45 + 100 μM NAC) is “synergistic effect”. Further, the “effect on viability, compound alone” value in experiment [5] (FIG. 1, 10 μM cmpd 45 alone) was “significant effect”.

`COc1cc(O)c2c(c1)OC(O)(c1ccc(OCc3ccccc3)cc1)CC2=O` (stereo not shown) [Compound 46]: the “effect … with NAC (Bliss model)” value is reported as “synergistic effect” in experiment [5] (FIG. 2, 5 μM cmpd 46 + 50 μM NAC); “synergistic effect” in experiment [1] (FIG. 3, 25 μM cmpd 46 + 100 μM NAC); “synergistic effect” in experiment [3] (FIG. 12, 25 μM Compound 46 + 500 μM NAC). The “effect on viability, compound alone” value in experiment [5] (FIG. 2, 5 μM cmpd 46 alone) is reported as “significant effect”; in experiment [5] (FIG. 13, 10 μM cmpd 46 alone) it was “significant effect”; in experiment [1] (FIG. 3, 25 μM cmpd 46 alone) it was “significant effect”; in experiment [1] (FIG. 16, 25 μM Compound 46 alone), “significant effect”. Moreover, the “effect on viability, combined with NACA (Bliss model)” value in experiment [5] (FIG. 13, 10 μM cmpd 46 + 125 μM NACA) was “synergistic effect”. Further, the “effect on viability, combined with N-acetylcysteine ethyl ester (Bliss model)” value in experiment [1] (FIG. 16, 25 μM Compound 46 + 100 μM N-acetylcysteine ethyl ester) is recorded as “synergistic effect”.

For the compound `CC(=O)N[C@@H](CS)C(=O)O` [NAC, N-acetylcysteine], the ALT plasma level in experiment [4] (NAC 200 mg/kg i.p. one hour after APAP 400 mg/kg i.p.) is recorded as ~ 1300 IU/L.
